Laboratory results published in patent US10961309B2, “Reducing systemic regulatory T cell levels or activity for treatment of disease and injury of the CNS” (Yeda Research and Development Co. Ltd, priority 2014, dated 2021).
Entries after “also recorded” stand apart in the source; their conditions may differ.

Columns and labels:
5XFAD AD-Tg mice = experiment: Radial arm water maze (RAWM); type: in vivo, mouse
Protocol: The radial-arm water maze (RAWM) was used to test spatial learning and memory, as was previously described in detail (Alamed et al, 2006). Briefly, six stainless steel inserts were placed in the tank, forming six swim arms radiating from an open central area. The escape platform was located at the end of one arm (the goal arm), 1.5 cm below the water surface, in a pool 1.1 m in diameter. The water temperature was kept between 21-22° C. Water was made opaque with milk powder. Within the testing room, only distal visual shape and object cues were available to the mice to aid in location of the submerged platform. The goal arm location remained constant for a given mouse. On day 1, mice were trained for 15 trials (spaced over 3 h), with trials alternating between a visible and hidden platform, and the last 4 trails with hidden platform only. On day 2, mice were trained for 15 trials with the hidden platform. Entry into an incorrect arm, or failure to select an arm within 15 sec, was scored as an error. Spatial learning and memory were measured by counting the number of arm entry errors or the escape latency of the mice on each trial. Training data were analyzed as the mean errors or escape latency, for training blocks of three consecutive trials.
At 10 months of age, 5XFAD Alzheimer's' disease (AD) transgenic (Tg) mice were injected i.p. with either 250 ug of anti-PD1 (RMP1-14; #BE0146; Bioxcell Lifesciences Pvt. LTD.) or control IgG (IgG2a; #BE0089; Bioxcell Lifesciences Pvt. LTD.) antibodies, on day 1 and day 4 of the experiment, and were examined 3 weeks after (schematically depicted in FIG. 11A) for their cognitive performance by radial arm water maze (RAWM) spatial learning and memory task, as was previously described in detail (Alamed et al, 2006). Briefly, on day 1 of the RAWM task, mice were trained for 15 trials (spaced over 3 h), with trials alternating between a visible and hidden platform, and the last 4 trails with hidden platform only. On day 2, mice were trained for 15 trials with the hidden platform. Entry into an incorrect arm, or failure to select an arm within 15 sec, was scored as an error. Spatial learning and memory were measured by counting the number of arm entry errors or the escape latency of the mice on each trial. Age matched untreated WT and AD-Tg mice were used as controls.

[1] = system: hippocampal gliosis (GFAP); experiment: GFAP immunostaining (astrogliosis); type: in vivo, mouse
Protocol: Tissue processing and immunohistochemistry were performed on paraffin embedded sectioned mouse (6 μm thick) and human (10 μm thick) brains. For human ICAM-1 staining, primary mouse anti-ICAM (1:20 Abcam; ab2213) antibody was used. Slides were incubated for 10 min with 3% H2O2, and a secondary biotin-conjugated anti-mouse antibody was used, followed by biotin/avidin amplification with Vectastain ABC kit (Vector Laboratories). Subsequently, 3,3′-diaminobenzidine (DAB substrate) (Zytomed kit) was applied; slides were dehydrated and mounted with xylene-based mounting solution. For tissue stainings, mice were transcardially perfused with PBS prior to tissue excision and fixation. CP tissues were isolated under a dissecting microscope (Stemi DV4; Zeiss) from the lateral, third, and fourth ventricles of the brain. […] Microscopic analysis, was performed using a fluorescence microscope (E800; Nikon) or laser-scanning confocal microscope (Carl Zeiss, Inc.). The fluorescence microscope was equipped with a digital camera (DXM 1200F; Nikon), and with either a 20× NA 0.50 or 40× NA 0.75 objective lens (Plan Fluor; Nikon). […] For quantification of staining intensity, total cell and background staining was measured using ImageJ software (NIH), and intensity of specific staining was calculated, as previously described (Burgess et al, 2010). […]

What does the source list for CC1=C(/C=C/C(C)=C/C=C/C(C)=C/C(=O)O)C(C)(C)CCC1 [ATRA, All-trans retinoic acid]?
cognitive performance (spatial memory) in the RAWM (5XFAD AD-Tg mice; ATRA-treated vs vehicle-treated AD-Tg mice, 3 weeks after treatment): worsening of the spatial memory deficits; gliosis ([1]; 3 weeks after last ATRA injection, AD-Tg mice): 2-3 fold increase

With Diphtheria toxin [DTx] as the molecule, how does the “hippocampal gliosis (GFAP immunostaining)” value ([1]; AD-Tg/DTR+ mice, 3 weeks after last DTx injection) read?
Its value is “reduced astrogliosis; also recorded: reduction in hippocampal gliosis”.

For Glatiramer acetate [GA], which “cognitive performance (spatial memory) by the RAWM task” value (5XFAD AD-Tg mice; daily-GA 100 μg s.c. for 1 month, 7-month old 5XFAD AD-Tg mice) is on record?
Its value is “either no beneficial effect on spatial memory, or a tendency towards a worsening effect”.

And the “duration of improved cognitive performance after the treatment” value (5XFAD AD-Tg mice; weekly-GA, 5XFAD AD-Tg mice)?
Its value is “up to 2 months”.

And the “cognitive performance by the RAWM task” value (5XFAD AD-Tg mice; weekly-GA, 7-month old 5XFAD AD-Tg mice)?
Its value is “beneficial effect”.
